Test results: PubChem BioAssay AID434941 (Johns Hopkins Ion Channel Center, 2010)

Biological target: Short transient receptor potential channel 4 (Mus musculus) (UniProt Q9QUQ5)
Experiment: potentiation of DAMGO-evoked TRPC4 calcium signal – cell-based, HEK293 TRPC4/mu-opioid, Fluo-4 calcium, EC20 DAMGO, dose response (AID 434941);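 note: calcium entry triggered by an EC20 dose of DAMGO at the co-expressed mu-opioid receptor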
Details: HEK293 TRPC4/mu-opioid cells, Fluo-4 calcium fluorescence

Chain of Short transient receptor potential channel 4 (Mus musculus) (Q9QUQ5 whole entry, looked up): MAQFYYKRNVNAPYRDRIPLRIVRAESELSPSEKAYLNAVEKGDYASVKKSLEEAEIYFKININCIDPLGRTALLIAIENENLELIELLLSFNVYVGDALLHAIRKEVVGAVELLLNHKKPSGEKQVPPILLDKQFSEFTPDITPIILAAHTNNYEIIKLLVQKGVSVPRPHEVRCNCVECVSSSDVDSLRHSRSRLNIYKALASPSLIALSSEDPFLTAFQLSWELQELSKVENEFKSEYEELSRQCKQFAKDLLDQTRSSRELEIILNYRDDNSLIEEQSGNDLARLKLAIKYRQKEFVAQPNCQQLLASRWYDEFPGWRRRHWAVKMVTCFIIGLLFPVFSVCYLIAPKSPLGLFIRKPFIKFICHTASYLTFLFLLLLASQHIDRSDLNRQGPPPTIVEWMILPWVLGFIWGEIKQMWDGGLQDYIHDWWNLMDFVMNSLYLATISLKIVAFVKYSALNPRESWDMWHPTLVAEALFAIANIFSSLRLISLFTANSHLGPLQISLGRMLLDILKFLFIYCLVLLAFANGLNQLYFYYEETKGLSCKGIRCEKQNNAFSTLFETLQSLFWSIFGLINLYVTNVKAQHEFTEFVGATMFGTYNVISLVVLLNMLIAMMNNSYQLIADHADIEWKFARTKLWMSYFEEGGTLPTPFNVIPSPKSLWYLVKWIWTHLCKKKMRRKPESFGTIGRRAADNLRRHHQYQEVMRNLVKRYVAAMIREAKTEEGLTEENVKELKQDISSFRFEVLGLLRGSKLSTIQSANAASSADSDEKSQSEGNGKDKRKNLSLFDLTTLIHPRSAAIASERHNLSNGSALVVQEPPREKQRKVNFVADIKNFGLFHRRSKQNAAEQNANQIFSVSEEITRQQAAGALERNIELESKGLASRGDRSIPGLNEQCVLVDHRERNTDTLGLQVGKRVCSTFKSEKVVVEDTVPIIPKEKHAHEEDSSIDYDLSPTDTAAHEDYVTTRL

Structure (SMILES): Cn1c(O)c(/C=N/NC(=O)c2cc3ccccc3cc2O)c2ccccc21
- EC50: 5.96 µM
